Data as given in patent US20160159808A1, “HETEROCYCLIC COMPOUND” (TAKEDA PHARMACEUTICAL COMPANY LIMITED, priority 2013, published 2016).

Experiments:
human PDE2A3 enzyme = target: T1, human PDE2A3 enzyme (Homo sapiens, UniProt O00408); assay: PDE Enzyme Inhibitory Assay (SPA, [3H]cGMP substrate); type: biochemical; conditions: compound 1 μM; [3H]cGMP 77 nM; 60 min at room temperature; read-out: inhibitory rate (%) (1 μM)
T1 construct: Human PDE2A3 full-length gene was transduced into Sf9; His-tag; made in house; host or cells: Sf9 insect cells
Procedure: PDE Enzyme Inhibitory Assay Human PDE2A3 full-length gene was transduced into Sf9, and human PDE2A3 enzyme was purified by His-tag affinity column and gel filtration. The enzyme was stored at −70° C. until use. PDE activity was measured using a SPA (Scintillation Proximity Assay) (GE Healthcare). To evaluate the inhibitory activity of the compound, 10 μl of serial diluted compounds were reacted with 20 μl of PDE enzyme in assay buffer (50 mM HEPES-NaOH, 8.3 mM MgCl2, 1.7 mM EGTA, 0.1% BSA (pH 7.4)) for 30 min. at room temperature. Final concentration of DMSO in the reaction solution was 1 percent. Compounds were tested in duplicate in 96-well half-area plates (Corning) or 384-well OptiPlate (PerkinElmer). To start the reaction, 10 μl of substrate [^3H] cGMP (final concentration 77 nM, PerkinElmer) was added to a total volume of 40 μl. After reaction for 60 min at room temperature, 20 μl of 20 mg/mL yttrium SPA beads containing zinc sulfate was added to terminate the PDE reaction. After being settled for further 1 hour, the assay plates were counted in a scintillation counter (PerkinElmer) to allow calculation of inhibition rate. Inhibition rate was calculated on the basis of 0% control wells with enzyme and DMSO, and 100% control wells without enzyme.

Male C57BL/6 mice = assay: Contextual fear conditioning test, MK-801-induced deficits; type: in vivo; conditions: 30 mg/kg p.o. 60 min before test, MK-801 (maleate) 0.08 mg/kg s.c. 30 min before test, n=10, FIG. 1
Procedure: Improvement effect on MK-801 ((5S,10R)-5-methyl-10,11-dihydro-5H-5,10-epiminodibenzo[a,d][7]annulene)-induced disorder in contextual fear conditioning test.
Male C57BL/6 mice were purchased from CLEA Japan, Inc. They were used for an experiment after a habituation period of at least one week after carrying them in the animal experimental facility. They were bred in the animal experimental facility with environment in which 12-hours light-dark cycle was performed, humidity and temperature were controlled, and free water drinking and feeding were allowed. Handling of experimental animals and experimental procedure of this study were approved by the Experimental Animal Ethics Committee of Takeda Pharmaceutical Company Limited.
A test compound was suspended in 0.5% methylcellulose solution at a dose of 30 mg/kg, and orally administered. MK-801 (maleate) (Sigma-Aldrich, St Louis, Mo.) was dissolved in saline at a dose of 0.08 mg/kg, and subcutaneously administered. All drugs were administered to mice at a dose of 10 mL/kg.
Contextual fear conditioning test is widely used as memory and learning test system depending on the hippocampus and amygdala. The improvement effect of test compounds on MK-801-induced deficits was investigated by contextual fear conditioning test. The test compounds and MK-801 (maleate) were administered 60 min and 30 min, respectively, before the test. 0.5% methylcellulose and saline were administered to the control groups 60 min and 30 min, respectively, before the test. 0.5% methylcellulose and MK-801 (maleate) were administered to the vehicle groups 60 min and 30 min, respectively, before the test. […] In the test session on day 2 of the experiment, mice were placed in the same chamber for 7 minutes, and freezing was measured during that period. The freezing was calculated as a percentage of freezing rates during measuring period with use of an automatic analysis software manufactured by the O'Hara & Co., Ltd. All data were shown as the mean+standard error (n=10). […]

T1 sequence (O00408 whole entry): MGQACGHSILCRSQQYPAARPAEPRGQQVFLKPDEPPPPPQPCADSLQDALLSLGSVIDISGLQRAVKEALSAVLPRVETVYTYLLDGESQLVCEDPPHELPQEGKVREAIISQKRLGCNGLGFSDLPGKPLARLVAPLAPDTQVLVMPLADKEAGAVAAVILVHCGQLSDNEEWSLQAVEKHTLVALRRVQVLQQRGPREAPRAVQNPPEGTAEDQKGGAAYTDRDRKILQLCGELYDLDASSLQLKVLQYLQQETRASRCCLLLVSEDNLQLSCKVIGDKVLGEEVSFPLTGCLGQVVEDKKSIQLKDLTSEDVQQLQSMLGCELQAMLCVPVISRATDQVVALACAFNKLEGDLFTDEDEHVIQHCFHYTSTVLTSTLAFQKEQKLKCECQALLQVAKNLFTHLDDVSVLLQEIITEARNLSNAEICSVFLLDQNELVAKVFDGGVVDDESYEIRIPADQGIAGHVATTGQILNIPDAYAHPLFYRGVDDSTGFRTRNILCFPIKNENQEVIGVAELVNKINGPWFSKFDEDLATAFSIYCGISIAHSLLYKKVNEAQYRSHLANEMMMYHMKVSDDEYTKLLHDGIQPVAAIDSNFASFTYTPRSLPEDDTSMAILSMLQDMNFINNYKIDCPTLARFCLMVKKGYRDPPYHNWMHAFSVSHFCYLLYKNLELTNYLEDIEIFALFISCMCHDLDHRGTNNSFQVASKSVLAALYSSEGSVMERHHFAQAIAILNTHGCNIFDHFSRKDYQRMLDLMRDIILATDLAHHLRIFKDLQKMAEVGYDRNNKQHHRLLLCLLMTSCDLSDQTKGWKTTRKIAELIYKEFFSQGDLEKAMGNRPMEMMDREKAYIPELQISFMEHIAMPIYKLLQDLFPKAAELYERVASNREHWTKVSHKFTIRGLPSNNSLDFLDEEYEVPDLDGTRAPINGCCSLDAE

Compound | inhibition at 1 µM (human PDE2A3 enzyme) | improvement effect on MK-801-induced deficits in contextual fear conditioning test (freezing) (Male C57BL/6 mice)
Cc1cn2ncc(C(=O)N[C@@H](c3ccc(OC(F)(F)F)cc3)C(C)(C)O)c2nc1-n1cnc(C(F)(F)F)c1 [Example 79, N-((1S)-2-hydroxy-2-methyl-1-(4-(trifluoromethoxy)phenyl)propyl)-6-methyl-5-(4-(trifluoromethyl)-1H-imidazol-1-yl)pyrazolo[1,5-a]pyrimidine-3-carboxamide] | 101% | –
Cc1ccc(-c2ccn3ncc(C(=O)N[C@@H](c4ccc(OC(F)(F)F)cc4)C(C)(C)O)c3n2)cn1 [Example 69, N-((1S)-2-hydroxy-2-methyl-1-(4-(trifluoromethoxy)phenyl)propyl)-5-(6-methylpyridin-3-yl)pyrazolo[1,5-a]pyrimidine-3-carboxamide] | 100% | improvement effect on MK-801-induced deficits was shown
Cc1cn2ncc(C(=O)NC(c3ccc(OC(F)(F)F)c(F)c3)C(C)(C)O)c2nc1N1CCC1 (stereo not shown) [Example 59, 5-(azetidin-1-yl)-N-(1-(3-fluoro-4-(trifluoromethoxy)phenyl)-2-hydroxy-2-methylpropyl)-6-methylpyrazolo[1,5-a]pyrimidine-3-carboxamide] | 101% | –
COC[C@@H](NC(=O)c1cc(=O)[nH]c2cc(C)cnc12)c1ccc(OC(F)(F)F)cc1 [Example 92, N-((1S)-2-methoxy-1-(4-(trifluoromethoxy)phenyl)ethyl)-7-methyl-2-oxo-1,2-dihydro-1,5-naphthyridine-4-carboxamide] | 100% | –
Cn1cc(C(=O)N[C@@H](c2ccc(OC(F)(F)F)c(F)c2)C(C)(C)O)c2nc(C3CC3)cc(=O)n21 [Example 66, 5-cyclopropyl-N-((1S)-1-(3-fluoro-4-(trifluoromethoxy)phenyl)-2-hydroxy-2-methylpropyl)-1-methyl-7-oxo-1,7-dihydropyrazolo[1,5-a]pyrimidine-3-carboxamide] | 98% | –
CC(C)(O)[C@@H](NC(=O)c1ccc2cncc(-c3ccccc3)c2n1)c1ccc(OC(F)(F)F)cc1 [Example 164, N-((1S)-2-hydroxy-2-methyl-1-(4-(trifluoromethoxy)phenyl)propyl)-8-phenyl-1,6-naphthyridine-2-carboxamide] | 97% | –
Cc1ncn(-c2nc3c(C(=O)N[C@@H](c4ccc(OC(F)(F)F)cc4)C(C)(C)O)cnn3cc2C)n1 [Example 161, N-((1S)-2-hydroxy-2-methyl-1-(4-(trifluoromethoxy)phenyl)propyl)-6-methyl-5-(3-methyl-1H-1,2,4-triazol-1-yl)pyrazolo[1,5-a]pyrimidine-3-carboxamide] | 100% | improvement effect on MK-801-induced deficits was shown
COCC(NC(=O)c1cc(=O)[nH]c2cccnc12)c1ccc(OC(F)(F)F)cc1 (stereo not shown) [Example 1, N-(2-methoxy-1-(4-(trifluoromethoxy)phenyl)ethyl)-2-oxo-1,2-dihydro-1,5-naphthyridine-4-carboxamide] | 99% | –
CC(C)(O)[C@@H](NC(=O)c1cnn2ccc(-c3cnn(C(F)F)c3)nc12)c1ccc(OC(F)(F)F)cc1 [Example 70, 5-(1-(difluoromethyl)-1H-pyrazol-4-yl)-N-((1S)-2-hydroxy-2-methyl-1-(4-(trifluoromethoxy)phenyl)propyl)pyrazolo[1,5-a]pyrimidine-3-carboxamide] | 101% | –
CC(C)(O)[C@@H](NC(=O)c1cnn2ccc(-c3ccccn3)nc12)c1ccc(OC(F)(F)F)cc1 [Example 72, N-((1S)-2-hydroxy-2-methyl-1-(4-(trifluoromethoxy)phenyl)propyl)-5-(pyridin-2-yl)pyrazolo[1,5-a]pyrimidine-3-carboxamide] | 100% | –
Cc1cn2ncc(C(=O)N[C@@H](c3ccc(OC(F)(F)F)cc3)C(C)(C)O)c2nc1-c1cnn(C(F)F)c1 [Example 83, 5-(1-(difluoromethyl)-1H-pyrazol-4-yl)-N-((1S)-2-hydroxy-2-methyl-1-(4-(trifluoromethoxy)phenyl)propyl)-6-methylpyrazolo[1,5-a]pyrimidine-3-carboxamide] | 100% | –
CC(C)(O)[C@@H](NC(=O)c1cnn2ccc(-c3ccccc3C#N)nc12)c1ccc(OC(F)(F)F)c(F)c1 [Example 101, 5-(2-cyanophenyl)-N-((1S)-1-(3-fluoro-4-(trifluoromethoxy)phenyl)-2-hydroxy-2-methylpropyl) pyrazolo[1,5-a]pyrimidine-3-carboxamide] | 100% | –
CCN(C)c1ccn2ncc(C(=O)NC(c3ccc(OC(F)(F)F)c(F)c3)C(C)(C)O)c2n1 (stereo not shown) [Example 29, 5-(ethyl(methyl)amino)-N-(1-(3-fluoro-4-(trifluoromethoxy)phenyl)-2-hydroxy-2-methylpropyl)pyrazolo[1,5-a]pyrimidine-3-carboxamide] | 100% | –
COC[C@@H](NC(=O)c1cc(=O)[nH]c2cc(OC)cnc12)c1ccc(OC(F)(F)F)c(F)c1 [Example 152, N-((1S)-1-(3-fluoro-4-(trifluoromethoxy)phenyl)-2-methoxyethyl)-7-methoxy-2-oxo-1,2-dihydro-1,5-naphthyridine-4-carboxamide] | 100% | –
COCC(NC(=O)c1cnn2ccc(N3CCOCC3)nc12)c1ccc(OC(F)(F)F)c(F)c1 (stereo not shown) [Example 38, N-(1-(3-fluoro-4-(trifluoromethoxy)phenyl)-2-methoxyethyl)-5-(morpholin-4-yl)pyrazolo[1,5-a]pyrimidine-3-carboxamide] | 98% | –
CC1(C)CCN(c2ccn3ncc(C(=O)N[C@@H](c4ccc(OC(F)(F)F)cc4)C(C)(C)O)c3n2)C1=O [Example 135, 5-(3,3-dimethyl-2-oxopyrrolidin-1-yl)-N-((1S)-2-hydroxy-2-methyl-1-(4-(trifluoromethoxy)phenyl)propyl)pyrazolo[1,5-a]pyrimidine-3-carboxamide] | 100% | –
CC1(C)CN(c2ccn3ncc(C(=O)N[C@@H](c4ccc(OC(F)(F)F)cc4)C(C)(C)O)c3n2)CCO1 [Example 124, 5-(2,2-dimethylmorpholin-4-yl)-N-((1S)-2-hydroxy-2-methyl-1-(4-(trifluoromethoxy)phenyl)propyl)pyrazolo[1,5-a]pyrimidine-3-carboxamide] | 99% | –
COC[C@@H](NC(=O)c1cnn2cc(C)cnc12)c1ccc(OC(F)(F)F)c(F)c1 [Example 12, N-((1S)-1-(3-fluoro-4-(trifluoromethoxy)phenyl)-2-methoxyethyl)-6-methylpyrazolo[1,5-a]pyrimidine-3-carboxamide] | 99% | –
Cn1cc(C(=O)N[C@@H](c2ccc(OC(F)(F)F)cc2)C(C)(C)O)c2nc(-c3ccccn3)cc(=O)n21 [Example 77, N-((1S)-2-hydroxy-2-methyl-1-(4-(trifluoromethoxy)phenyl)propyl)-1-methyl-7-oxo-5-(pyridin-2-yl)-1,7-dihydropyrazolo[1,5-a]pyrimidine-3-carboxamide] | 100% | –
Cc1cn(-c2ccn3ncc(C(=O)N[C@@H](c4ccc(OC(F)(F)F)cc4)C(C)(C)O)c3n2)cn1 [Example 115, N-((1S)-2-hydroxy-2-methyl-1-(4-(trifluoromethoxy)phenyl)propyl)-5-(4-methyl-1H-imidazol-1-yl)pyrazolo[1,5-a]pyrimidine-3-carboxamide] | 101% | –
